Test results published in patent US6846803B1, “Antagonists specific for the corticotropin-releasing factor receptor type 2 (CRFR2)” (priority 1998, dated 2005).
Marks after values point to notes of the source that are not given here. Positions of bridges follow the written chain, without caps; N, C: chain ends. Non-standard residues stand in square brackets, D forms with d. Residues, ends and D or L forms follow the SMILES beside them. No end group written: not given here. *: point of attachment. ATB = 4-(1-azi-2,2,2-trifluoroethyl)benzoyl, O=C(c1ccc(C2(C(F)(F)F)N=N2)cc1)*; X1 = O=C(c1ccc(C2(C(F)(F)F)N=N2)cc1)*

Tests used:
[1] = molecular target: T1, mCRFR2β (Mus musculus, UniProt Q60748); assay: cAMP stimulation / inhibition of Svg-stimulated cAMP production in HEK-mCRFR2β cells; format: cell-based; details: for HEK-mCRFR2β cells rel. pot. (relative potency): Table 4, Svg alone = 1.00; for HEK-mCRFR2β cells rel. pot. (relative potency) / mCRFR2β relative in vitro potency: 10 nM antagonist, cAMP production stimulated by 1 nM Svg; for Emax: read-out: HEK-mCRFR2β cells rel. IA (relative intrinsic activity); for mCRFR2β relative in vitro potency: Table 2, Svg alone = 1.00 (lower = stronger inhibition)
T1 construct: expressed in transfected cells; host or cells: HEK 293 cells, stably transfected (HEK-mCRFR2β); membrane homogenates
Experimental: (§1) HEK-rCRFR1 cells or HEK-mCRFR2β cells were incubated with different CRF agonists in the presence or absence of 1 μM or 10 nM antagonist, or CRF antagonist (c=1 μM) alone. After removal of the medium, cells were lyzed with aqueous 6% trichloroacetic acid (5 min, 100° C.) (Rühmann, A., A. K. E. Köpke, F. M. Dautzenberg, and J. Spiess, Proc. Natl. Acad. Sci. USA 93: 10609-10613, 1996). The cell lysates were stored at −70° C. until assayed with a RIA kit (Amersham, Little Chalfont). […] Statistical significance was determined across groups with ANOVA, and significant differences between groups were determined by post hoc comparison using the Dunn test.
(§2) Intrinsic activities were measured at peptide concentrations generating maximal formation of cAMP in HEK-rCRFR1 or HEK-mCRFR2β cells.
Target sequence in this assay (Q60748 1-431 isoform Q60748-2): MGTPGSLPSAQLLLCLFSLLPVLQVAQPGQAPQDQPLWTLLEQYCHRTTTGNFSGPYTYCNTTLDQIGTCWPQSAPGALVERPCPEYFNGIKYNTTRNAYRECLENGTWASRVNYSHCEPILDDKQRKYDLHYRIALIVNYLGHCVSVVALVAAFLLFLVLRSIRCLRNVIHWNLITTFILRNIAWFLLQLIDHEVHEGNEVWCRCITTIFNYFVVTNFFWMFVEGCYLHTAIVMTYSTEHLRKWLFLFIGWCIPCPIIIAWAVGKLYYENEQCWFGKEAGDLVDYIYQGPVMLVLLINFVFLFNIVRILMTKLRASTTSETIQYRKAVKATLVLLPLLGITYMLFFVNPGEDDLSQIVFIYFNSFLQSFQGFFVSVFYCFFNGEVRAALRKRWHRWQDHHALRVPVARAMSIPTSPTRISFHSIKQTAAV

[2] = molecular target: T2, rCRFR1 (Rattus norvegicus, UniProt P35353); assay: cAMP stimulation / inhibition of oCRF-stimulated cAMP production in HEK-rCRFR1 cells; format: cell-based; details: for HEK-rCRFR1 cells rel. pot. (relative potency): Table 4, oCRF alone = 1.00; for HEK-rCRFR1 cells rel. pot. (relative potency) / rCRFR1 relative in vitro potency: 1 μM antagonist, cAMP production stimulated by 1 nM oCRF; for Emax: read-out: HEK-rCRFR1 cells rel. IA (relative intrinsic activity); for rCRFR1 relative in vitro potency: Table 2, oCRF alone = 1.00 (lower = stronger inhibition)
T2 construct: expressed in transfected cells; host or cells: HEK 293 cells, stably transfected (HEK-rCRFR1)
T2 sequence (P35353 24-415): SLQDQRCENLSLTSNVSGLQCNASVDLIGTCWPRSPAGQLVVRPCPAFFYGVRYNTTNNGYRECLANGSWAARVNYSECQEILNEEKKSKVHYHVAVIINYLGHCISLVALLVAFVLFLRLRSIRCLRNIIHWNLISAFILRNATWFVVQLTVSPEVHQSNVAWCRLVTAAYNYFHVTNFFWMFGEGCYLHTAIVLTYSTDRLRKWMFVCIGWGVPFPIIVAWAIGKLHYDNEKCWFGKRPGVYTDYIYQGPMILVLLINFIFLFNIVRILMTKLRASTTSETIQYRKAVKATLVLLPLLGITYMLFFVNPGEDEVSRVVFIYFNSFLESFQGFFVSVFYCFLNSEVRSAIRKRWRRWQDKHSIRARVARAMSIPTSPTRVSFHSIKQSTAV
Experimental: as §1, §2

[3] = molecular target: T1, mCRFR2β; assay: Displacement of [^125I-Tyr^0]Svg from membranes of HEK-mCRFR2β cells; format: binding; details: for Selectivity: Kd(rCRFR1)(peptide)/Kd(rCRFR1)(astressin) × Kd(mCRFR2β)(astressin)/Kd(mCRFR2β)(peptide)
Experimental: (§3) Binding assays were performed in 96-well MultiScreen plates (Millipore, Eschborn, Germany) with GF/B filters (pore size 1.0 μm). […] After incubation (60 min, 23° C.), membrane suspension was aspirated through the plate, followed by two washes with assay buffer (0.2 ml, 23°). Radioactivity of the punched filters was measured with a 1470 WIZARD automatic gamma counter (Berthold, Hannover). […] Statistical analysis was performed with ANOVA, and significant differences between groups were determined by post hoc comparison using the Dunn test.
Membrane homogenates of human embryonic kidney (HEK) 293 cells stably transfected with cDNA coding for rat CRF receptor, type 1 (rCRFR1) or mouse CRF receptor, type 2β (mCRFR2β) were prepared according to standard protocols (see, e.g., Sambrook et al., Molecular Cloning: A Laboratory Manual, 2nd. Edition, Cold Spring Habor Laboratory Press, Cold Spring Habor, N.Y., 1989; Ausubel et al., Current Protocols in Molecular Biology, Green Publishing Associates and Wiley Interscience, NY, 1989).

[4] = molecular target: T3, rat CRF receptor, type 1 (rCRFR1) (rat, UniProt P35353 24-415); assay: cell-based or functional assay
T3 sequence (looked up): T2 sequence (P35353 24-415)

[5] = molecular target: T3, rat CRF receptor, type 1 (rCRFR1); assay: cell-based or functional assay; remark: listed apart in the source
[6] = molecular target: mouse CRF receptor, type 2β (mCRFR2β) (mouse) (UniProt Q60748); assay: Kd(rCRFR1)/Kd(mCRFR2β) of the peptide normalised to that of astressin; radioligand displacement
[7] = molecular target: T3, rat CRF receptor, type 1 (rCRFR1); assay: displacement of [125I-Tyr0]oCRF from HEK-rCRFR1 membranes
Experimental: as §3

`CC[C@H](C)[C@H](NC(=O)[C@@H](NC(=O)[C@H](CC(=O)O)NC(=O)[C@H](CC(C)C)NC(=O)[C@H](CC(C)C)NC(=O)[C@H](CC(C)C)NC(=O)[C@H](CCCNC(=N)N)NC(=O)[C@H](CC(N)=O)NC(=O)[C@H](CC(N)=O)NC(=O)[C@H](C)NC(=O)[C@H](C)NC(=O)[C@H](CCC(N)=O)NC(=O)[C@H](CCC(N)=O)NC(=O)[C@H](CCCCN)NC(=O)[C@H](CCC(=O)O)NC(=O)[C@H](CCCCN)NC(=O)[C@H](CCC(=O)O)NC(=O)[C@H](CCC(N)=O)NC(=O)[C@H](CCCCN)NC(=O)[C@H](CCC(=O)O)NC(=O)[C@@H](NC(=O)[C@H](CCC(=O)O)NC(=O)[C@@H](NC(=O)[C@H](CCSC)NC(=O)[C@H](CCCCN)NC(=O)[C@H](CCCNC(=N)N)NC(=O)[C@H](CC(C)C)NC(=O)[C@H](CC(C)C)NC(=O)[C@H](CCC(=O)O)NC(=O)[C@@H](N)Cc1ccc(O)cc1)[C@@H](C)CC)[C@@H](C)CC)[C@@H](C)O)C(N)=O` [compound 19, [Tyr^11]Svg(11-40)] was tested, and the “HEK-mCRFR2β cells rel. pot. (relative potency)” value [1] was 0.67 ± 0.04, the Emax [1] was 0.7 ± 0.2% and the “HEK-rCRFR1 cells rel. pot. (relative potency)” value [2] was 0.82 ± 0.06. The Emax [2] was 9 ± 1%, the Kd [3] was 20.8 ± 1.6 nM and the Selectivity ([3]; Table 3) was 32.97.

`CC[C@H](C)[C@H](NC(=O)[C@@H](NC(=O)[C@H](CC(=O)O)NC(=O)[C@H](CC(C)C)NC(=O)[C@H](CC(C)C)NC(=O)[C@H](CC(C)C)NC(=O)[C@H](CCCNC(=N)N)NC(=O)[C@H](CC(N)=O)NC(=O)[C@H](CC(N)=O)NC(=O)[C@H](C)NC(=O)[C@H](C)NC(=O)[C@H](CCC(N)=O)NC(=O)[C@H](CCC(N)=O)NC(=O)[C@H](CCCCN)NC(=O)[C@H](CCC(=O)O)NC(=O)[C@H](CCCCN)NC(=O)[C@H](CCC(=O)O)NC(=O)[C@H](CCC(N)=O)NC(=O)[C@H](CCCCN)NC(=O)[C@H](CCC(=O)O)NC(=O)[C@@H](NC(=O)[C@H](CCC(=O)O)NC(=O)[C@@H](NC(=O)[C@H](CCSC)NC(=O)[C@H](CCCCN)NC(=O)[C@H](CCCNC(=N)N)NC(=O)[C@H](CC(C)C)NC(=O)[C@H](CC(C)C)NC(=O)[C@H](Cc1c[nH]cn1)NC(=O)c1ccc(C2(C(F)(F)F)N=N2)cc1)[C@@H](C)CC)[C@@H](C)CC)[C@@H](C)O)C(N)=O` [compound 17, ATB-[His^12]Svg(12-40)] (X1-HLLRKMIEIEKQEKEKQQAANNRLLLDTI-NH2) was tested, and the “HEK-mCRFR2β cells rel. pot. (relative potency)” value [1] was 0.48 ± 0.04, the Emax [1] was 0.7 ± 0.2% and the “HEK-rCRFR1 cells rel. pot. (relative potency)” value [2] was 0.54 ± 0.06. The Emax [2] was 15 ± 1%, the Kd [3] was 3.1 ± 0.2 nM and the Selectivity ([3]; Table 3) was 32.26.

For `CC[C@H](C)[C@H](NC(=O)[C@@H](NC(=O)[C@H](CC(=O)O)NC(=O)[C@H](CC(C)C)NC(=O)[C@H](CC(C)C)NC(=O)[C@H](CC(C)C)NC(=O)[C@H](CCCNC(=N)N)NC(=O)[C@H](CC(N)=O)NC(=O)[C@H](CC(N)=O)NC(=O)[C@H](C)NC(=O)[C@H](C)NC(=O)[C@H](CCC(N)=O)NC(=O)[C@H](CCC(N)=O)NC(=O)[C@H](CCCCN)NC(=O)[C@H](CCC(=O)O)NC(=O)[C@H](CCCCN)NC(=O)[C@H](CCC(=O)O)NC(=O)[C@H](CCC(N)=O)NC(=O)[C@H](CCCCN)NC(=O)[C@H](CCC(=O)O)NC(=O)[C@@H](NC(=O)[C@H](CCC(=O)O)NC(=O)[C@@H](NC(=O)[C@H](CCSC)NC(=O)[C@H](CCCCN)NC(=O)[C@H](CCCNC(=N)N)NC(=O)[C@H](CC(C)C)NC(=O)[C@H](CC(C)C)NC(=O)[C@H](Cc1c[nH]cn1)NC(=O)[C@@H](N)Cc1ccc(O)cc1)[C@@H](C)CC)[C@@H](C)CC)[C@@H](C)O)C(N)=O` [compound 18, [Tyr^11, His^12]Svg(11-40)] (H-YHLLRKMIEIEKQEKEKQQAANNRLLLDTI-NH2; N-terminus assumed), the “HEK-mCRFR2β cells rel. pot. (relative potency)” value [1] was 0.37 ± 0.05, the Emax [1] was 0.8 ± 0.2% and the “HEK-rCRFR1 cells rel. pot. (relative potency)” value [2] was 0.79 ± 0.07. The Emax [2] was 3 ± 1%, the Kd [3] was 4.9 ± 1.8 nM and the Selectivity ([3]; Table 3) was 31.64.

With “α-helical CRF(9-41) [compound 4, reference compound]” the “mCRFR2β relative in vitro potency” value [1] was 0.67 ± 0.02, the “rCRFR1 relative in vitro potency” value [2] was 0.58 ± 0.05 and the Selectivity ([3]; Table 1) was 6.61.

For “[DPhe^11, Glu^12]rUcn(11-40) [compound 8]”, the “mCRFR2β relative in vitro potency” value [1] was 0.61 ± 0.02, the “rCRFR1 relative in vitro potency” value [2] was 0.42 ± 0.11 and the Selectivity ([3]; Table 1) was 5.04.

[DPhe^11]rUcn(11-40) [compound 7] was tested, and the “mCRFR2β relative in vitro potency” value [1] was 0.57 ± 0.06, the “rCRFR1 relative in vitro potency” value [2] was 0.18 ± 0.03^g and the Selectivity ([3]; Table 1) was 4.45.

[dF]HLLRTILELARTQSQRERAEQNRIIFDSV (ends and bridges not checked) [[DPhe^11]rUcn(11-40)] was tested, and the “% IA (intrinsic activity), cAMP production, HEK-rCRFR1 cells” value (shortened to “% IA (intrinsic activity)”) [4] was 0.07 relative, oCRF = 1.00.

For [dF]HLLRTILELARTQSQREEAEKNRIIFDSV (lactam 19-22; ends not checked) [cyclo(29-32)[DPhe^11, Glu^29, Lys^32]rUcn(11-40)], the “% IA (intrinsic activity)” value [4] was 0.1 relative, oCRF = 1.00.

[dL]ELLRTILELARTQSQRERAEQNRIIFDSV (ends and bridges not checked) [[DLeu^11, Glu^12]rUcn(11-40)] was tested, and the “% IA (intrinsic activity)” value [4] was 0.23 relative, oCRF = 1.00.

In the case of [dF]ELLRTILELARTQSQRERAEQNRIIFDSV (ends and bridges not checked) [[DPhe^11, Glu^12]rUcn(11-40)], the “% IA (intrinsic activity)” value [4] is reported as 0.22 relative, oCRF = 1.00.

With {ATB}-HLLRKMIEIEKQEKEKQQAANNRLLLDTI (ends and bridges not checked, also called compound 17) [ATB-[His^12]Svg(12-40)] the “rel. IA (relative intrinsic activity), cAMP production, HEK-rCRFR1 cells” value [5] was 0.15 relative, oCRF = 1.00, the “rel. pot. (relative potency), inhibition of oCRF-stimulated cAMP production, HEK-rCRFR1 cells” value [5] was 0.54 relative, oCRF = 1.00 and the Selectivity [6] was 32.3. For the same molecule, the Kd [7] was 142 nM.

For [dF]HLLREVLEMTKADQLAQQAHSNRKLLDIA (ends and bridges not checked) [[DPhe^12]oCRF(12-41)], the “% IA (intrinsic activity)” value [4] was 0.05 relative, oCRF = 1.00.

In the case of [dF]HLLRKMIEIEKQEKEKQQAANNRLLLDTI (not fully specified (C-terminus)) [antisauvagine-30, [DPhe^11, His^12]Svg(11-40)], the Selectivity [6] is reported as 77 and the “% IA (intrinsic activity)” value [4] is reported as 0.04 relative, oCRF = 1.00.
